US20160367515A1, “Improved delivery of poorly water soluble drugs with aphafetoprotein stabilized with metal ions” (Oy Safemed Ltd., priority 2013, published 2016)
pIC50: −log10 of the molar value.

Legend:
[1] = system: human hepatoma HepG2 cells; test: MTS cell viability assay, hepatoma HepG2 cells; assay type: cell-based; settings: HepG2, 48 h
Protocol: (§1) Tumor cell lines: human mammary carcinoma MCF-7, human hepatoma HepG2, and rat glioma C6—were originated from the American Type Culture Collection (ATCC). All cell lines were maintained in the complete DMEM or RPMI-1640 media supplemented with L-glutamine and 10% fetal calf serum (FCS) in humidified 5% CO2 atmosphere. For a passage, adherent cells were incubated in the EDTA/0.25% trypsin solution, then washed and plated out for experiments. Prior to addition of reagents, cells were washed with the fresh media with 2% FCS, plated onto 96-well polystyrene plates (Costar, USA) at a density of 3×10^3 cell/well in 180 μL of complete medium with 2% FCS and incubated for 2 h. […] Cell proliferation was assessed by [^3H]-thymidine (^3H-TdR) incorporation assay. […] Cells were harvested and the ^3H-TdR incorporation was measured by using the liquid scintillation counter LKB 1209 Rackbeta (LKB, Sweden). Results were expressed as mean counts per minute (cpm)±standard error of the mean of triplicate cultures or as a percentage of ^3H-TdR incorporation in the experimental cell cultures relatively to the untreated control, as described (Semenkova et al., Tumour Biol. 1997; 18: 261-74).
(§2) Cell viability was assessed by the Promega CellTiter 96 AQueous Non-Radioactive Cell Proliferation MTS assay (Promega, USA) according to manufacturer's instructions. […]

rat glioma C6 = test: MTS cell viability assay, rat glioma C6 cells; assay type: cell-based; settings: C6, 48 h, compositions of paclitaxel with rhAFP or Zn-rhAFP
Protocol: as §1, §2

NF-κB p65 = test: Immunofluorescence of activated NF-κB p65 nuclear translocation in MCF-7 cells; assay type: cell-based, human; settings: MCF-7, 2 h treatment
Protocol: The cells were incubated with paclitaxel (10 μM) with addition of Zn-rhAFP (3.0 μM) and/or curcumin (3.0 μM) for 2 h and then assessed for localization of p65 by immunocytochemistry. Activated […] (p65) was detected by treatment of the cells with phospho […] p65 rabbit polyclonal antibody (Cell signaling technologies, USA) followed by secondary goat anti-rabbit Ab-Alexa594 red (Molecular Probes, USA). Cells were visualized at magnification ×400 by fluorescent microscope Axioplan; Zeiss (Germany) equipped with corresponding color filter kits.
The relative amount of p65 in the cytosol and nucleus of the cells was assessed by ImageJ software and was taken as 100% in the control (cytosol+nucleus). Total amount of activated p65 in control untreated cells was taken as 100%. The experimental data are represented as percentage of control±SD from three independent calculations in various observation fields.
MCF-7 cells were seeded on the microscopic plates Lab-Tek™ Chamber Slides (Thermo Fisher Scientific-Nunc, Germany) and cultivated at 37° C. at 5% CO2 atmosphere for 48 h to allow cell adaptation to reach 80% confluence. To test effects of chemotherapeutic preparations on the activation and translocation of NF-κB, cells were treated for 2 h with Ptx (10 nM), curcumin (30 μM); Zn-rhAFP (1.4 μM), or their combination Zn-rhAFP/Ptx/Cur, after which they were fixed with 100% ice-cold acetone. Control cells were incubated without additions and their NF-κB content was taken as 100%. Activated NF-κB was detected by treatment of the cells with phospho NF-κB p65 rabbit polyclonal antibody (Cell signaling technologies, USA) followed by the secondary goat anti-rabbit antibodies Ab-Alexa594 (Molecular Probes, USA). Nuclei were visualized by staining with DAPI (Molecular probes, USA). Cells were visualized at magnification ×400 by fluorescent microscope Axioplan (Zeiss, Germany) equipped with corresponding color filter kits. Distribution throughout the cell of the activated p65 was assessed by the ImageJ software and was taken as 100% in the control samples (cytosol+nucleus).

CC(=O)O[C@H]1C(=O)[C@@]2(C)[C@H]([C@H](OC(=O)c3ccccc3)[C@]3(O)C[C@H](OC(=O)[C@H](O)[C@@H](NC(=O)c4ccccc4)c4ccccc4)C(C)=C1C3(C)C)[C@]1(OC(C)=O)CO[C@@H]1C[C@@H]2O [Ptx, paclitaxel]
sensitivity of HepG2 cells (chemoresistance) [1]: complete resistance | pIC50 (rat glioma C6): 5.60 | effect on activated p65 (RelA) in the cell nucleus (NF-κB p65): significant enhance of activated p65 localized in the nuclear region
